Data: PubChem BioAssay (NCI)
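96-well plates; 48 h exposure; 5 concentrations. Endpoints by linear interpolation between flanking doses. Not reached: highest tested concentration assigned. TGI is the concentration that stops growth completely.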

What was measured:
Assay in all cases: NCI tumour cell line growth inhibition, 48 h
A549 NSCLC = test system: A549 NSCLC
SK-OV-3 ovarian = test system: SK-OV-3 ovarian
OVCAR-5 ovarian = test system: OVCAR-5 ovarian
EKVX NSCLC = test system: EKVX NSCLC
LOX IMVI melanoma = test system: LOX IMVI melanoma
NCI/ADR-RES ovarian = test system: NCI/ADR-RES ovarian
CAKI-1 renal = test system: CAKI-1 renal
SNB-75 CNS = test system: SNB-75 CNS
RPMI-8226 leukemia = test system: RPMI-8226 leukemia
DU-145 prostate = test system: DU-145 prostate
ACHN renal = test system: ACHN renal
HT29 colon = test system: HT29 colon

SMILES | TGI (A549 NSCLC) [µM] | TGI (SK-OV-3 ovarian) [µM] | TGI (OVCAR-5 ovarian) [µM] | TGI (EKVX NSCLC) [µM] | TGI (LOX IMVI melanoma) [µM] | TGI (NCI/ADR-RES ovarian) [µM] | TGI (CAKI-1 renal) [µM] | TGI (SNB-75 CNS) [µM] | TGI (RPMI-8226 leukemia) [µM] | TGI (DU-145 prostate) [µM] | TGI (ACHN renal) [µM] | TGI (HT29 colon) [µM]
CCOC(=O)C1(C(=O)OCC)[C@@H](c2ccccc2)C2=NO[C@@H]3CCC[C@H]1[C@H]23 | > 100 | > 100 | > 100 | > 100 | > 100 | > 100 | > 100 | > 100 | > 100 | > 100 | > 100 | > 100
CCC1OC2C(CC=C(C)C)=C3OC(C)(O)C(C)(CC)C(OC(C)=O)C3=C3OC(=O)C=C1C32 (stereo unspecified) | > 100 | > 100 | 57.9 | > 100 | 48.8 | 83.2 | 62.1 | 52.1 | > 100 | > 100 | > 100 | 53.1
CCOC(=O)C(C(=O)OCC)=C1NC2(c3ccccc3Nc3ccccc32)C(C#N)S1 (stereo unspecified) | 20.9 | 53.8 | 36.1 | 47.2 | 26.5 | 28.8 | 53.7 | 53.2 | 7.07 | 28.4 | 52.8 | 17.8
CC(=O)Oc1ccc(/C=C/C(=O)OCCCOC(=O)/C=C/c2ccc(OC(C)=O)c(OC(C)=O)c2)cc1OC(C)=O | > 100 | > 100 | > 100 | > 100 | > 100 | > 100 | > 100 | > 100 | > 100 | > 100 | > 100 | > 100
CCOC(=O)NNC(=O)NCc1cccc(CNC(=O)NNC(=O)OCC)c1 | > 100 | > 100 | > 100 | > 100 | > 100 | > 100 | > 100 | > 100 | > 100 | > 100 |  | > 100
COc1ccc2c(c1)c1c(n2CCN(C)C)-c2ccccc2CC1 | 29.5 | 34.4 | 32.2 | 24.4 | 33.5 | 31.5 | 27.6 | 26.6 | 45 | 29.4 | 30 | 20.3
COC(=O)c1ccc2c(c1)S/C(=C/c1ccc3ccc4cccc5ccc1c3c45)S2 | > 100 | > 100 | > 100 | > 100 | > 100 | 76.2 | > 100 | 46 | > 100 | > 100 | > 100 | > 100
CC(=O)NC1C(OCc2ccccc2)OC(CO)C(O)C1OC(C)C(=O)NC(C)C(=O)NC(CCC(=O)NCCCCNc1c2ccccc2nc2cccc([N+](=O)[O-])c12)C(N)=O (stereo unspecified) | 0.838 | 3.55 | 1.65 | 0.322 | 0.548 | 0.524 | 0.307 | 0.569 | 0.0629 | 0.049 | 0.0664 | 0.0362
CC1(c2nc3ccccc3[nH]2)CCC(C(=O)O)C(C)(C)O1 (stereo unspecified) | > 100 | > 100 | > 100 | > 100 | > 100 | > 100 | > 100 | > 100 | > 100 | > 100 | > 100 | > 100
c1cc2nnc1SCCCSc1ccc(nn1)SCCCS2 | > 100 | 92.3 | > 100 | > 100 | > 48.4 | > 52.9 | > 100 | > 56.6 | > 100 | > 100 | > 100 | > 100
CSC(=S)Nc1cccc(C)n1 | > 100 | > 100 | > 100 | > 100 | > 100 | > 100 | > 100 | > 100 | > 100 | > 100 | > 100 | > 100
CCOC(=O)C(=CNc1ccc(NC2=NCC(C)S2)cc1)C(=O)OCC (stereo unspecified) | > 100 | > 100 | > 100 | > 100 | > 85.4 | 95.1 | > 100 | > 74.1 | 32.3 | > 100 | > 100 | > 84.2
O=c1c2cc(S(=O)(=O)O)ccc2nc(COc2ccc(Oc3ccc(Cl)cc3Cl)cc2)n1-c1ccc(Oc2ccc(Cl)cc2)cc1Cl | 40.6 | 49.2 | 55.1 | 44.5 | 30.2 | 39.5 | > 100 | 50.1 | 65.4 | > 100 | 56.6 | 36
CC(=O)C1=CN=C2C(=O)N(c3ccccc3)N(C)C12C (stereo unspecified) | > 100 | > 100 | > 100 | > 100 | > 100 | > 100 | > 100 | > 100 | > 100 | > 100 | > 100 | 
